Among the data in DBAASP are MIC values, retold here.

≈ marks a conversion by molar mass, not a printed value. Where “and” joins values, the source holds several entries; their conditions need not be identical. Equal values may be shown once. Some results are limits rather than exact numbers.

Holding throughout (test): ≥ marks a high value that may be exact or a test limit, other limits are often not marked, values filed in µg/mL are converted to µM
Assay [1] has as its system Acinetobacter calcoaceticus ATCC 23055.
The subject of assay [2] is Acinetobacter calcoaceticus C402.
The subject of assay [3] is Burkholderia cepacia ATCC 25416.
The test system of assay [4] is Candida albicans CAN105.
The test system of assay [5] is Corynebacterium xerosis.
For assay [6], the system named is Enterobacter cloacae ATCC 13047.
Assay [7] relates to Enterobacter cloacae C601.
Assay [8] deals with Enterococcus faecalis ATCC 29212.
In assay [9] the test system is Enterococcus faecalis C625.
The subject of assay [10] is Escherichia coli KF111.
Assay [11] has as its system Escherichia coli KF130.
In assay [12] the test system is Listeria monocytogenes NCTC 7973.
Assay [13] has as its system Mycobacterium tuberculosis H37Rv.
Assay [14] has as its system Pseudomonas aeruginosa ATCC 27853.
Assay [15] has as its system Pseudomonas aeruginosa H187.
Assay [16] concerns Pseudomonas aeruginosa H374.
For assay [17], the system named is Pseudomonas aeruginosa H547.
Assay [18] has as its system Pseudomonas aeruginosa H744.
In assay [19] the test system is Pseudomonas aeruginosa K799.
Assay [20] concerns Pseudomonas aeruginosa Z61.
For assay [21], the system named is Salmonella enterica subsp. enterica serovar Typhimurium ATCC 14028s.
The test system of assay [22] is Staphylococcus aureus ATCC 25923.
Assay [23] has as its system Staphylococcus aureus K147.
The subject of assay [24] is Staphylococcus aureus SAP 0017.
Assay [25] concerns Staphylococcus epidermidis.
The subject of assay [26] is Staphylococcus haemolyticus.
The subject of assay [27] is Stenotrophomonas maltophilia ATCC 13637.
The subject of assay [28] is Streptococcus pyogenes ATCC 19615.
Assay [29] concerns Legionella pneumophila Lens.
Assay [30] has as its system Escherichia coli ATCC 25922.
The test system of assay [31] is Escherichia coli K88.
For assay [32], the system named is Escherichia coli O157:H7 CICC 21530.
Assay [33] has as its system Lacticaseibacillus rhamnosus 1.0911.
Assay [34] concerns Lacticaseibacillus rhamnosus 1.0936.
Assay [35] has as its system Lacticaseibacillus rhamnosus 1.9021.
Assay [36] concerns Lacticaseibacillus rhamnosus 8014.
Assay [37] relates to Pseudomonas aeruginosa PAO1.
Assay [38] concerns Salmonella enterica subsp. enterica serovar Choleraesuis CVCC 503.
The subject of assay [39] is Salmonella enterica subsp. enterica serovar Pullorum C79-13.
For assay [40], the system named is Salmonella enterica subsp. enterica serovar Typhimurium ATCC 14028.
For assay [41], the system named is Staphylococcus aureus ATCC 29213.
Assay [42] has as its system Staphylococcus aureus ATCC 43300.
Assay [43] deals with Staphylococcus epidermidis ATCC 12228.
Assay [44] deals with Streptococcus agalactiae BNCC 185941.
In assay [45] the test system is Escherichia coli INV-a.
For assay [46], the system named is Lactococcus lactis MG1363.

With `CC[C@H](C)[C@H](NC(=O)[C@H](CC(C)C)NC(=O)[C@@H]1CCCN1C(=O)[C@H](CCCCN)NC(=O)[C@H](C)NC(=O)[C@@H](NC(=O)[C@@H](NC(=O)[C@@H](NC(=O)[C@@H](NC(=O)[C@H](CCCCN)NC(=O)[C@H](CCCCN)NC(=O)[C@H](C)NC(=O)[C@H](C)NC(=O)[C@H](CO)NC(=O)[C@@H](NC(=O)[C@H](CC(C)C)NC(=O)[C@H](CCCCN)NC(=O)[C@H](CCCCN)NC(=O)[C@@H](NC(=O)[C@H](Cc1ccccc1)NC(=O)[C@H](CO)NC(=O)[C@H](CCCCN)NC(=O)[C@H](Cc1c[nH]c2ccccc12)NC(=O)[C@@H](N)CCCCN)[C@@H](C)CC)[C@@H](C)O)C(C)C)C(C)C)[C@@H](C)O)[C@@H](C)O)C(=O)N[C@@H](CO)C(=O)N[C@@H](CO)C(=O)O` [KWKSFIKKLTSAAKKVVTTAKPLISS], the MIC in assay [1] is 0.699 µM (≈ 2 µg/mL); in [2], 2.8 µM and 1.4 µM; in assay [3] it was 22.4 µM (≈ 64 µg/mL); in assay [4], 22.4 µM (≈ 64 µg/mL); in assay [5], 0.349 µM (≈ 1 µg/mL); in [6] it was 0.699 µM (≈ 2 µg/mL). In addition, the MIC in [7] was 2.8 µM and 1.4 µM; in assay [8], > 22.4 µM; in assay [9] it was 5.59 µM and 11.2 µM; in assay [10], 0.699 µM (≈ 2 µg/mL); in assay [11] it was 0.349 µM (≈ 1 µg/mL); in assay [12] it was 5.59 µM (≈ 16 µg/mL). In addition, the MIC in [13] was 0.734 µM (≈ 2.1 µg/mL); in assay [14] it was 2.8 µM and 4 µM; in assay [15] it was 11.2 µM (≈ 32 µg/mL); in [16], 0.699 µM (≈ 2 µg/mL); in [17] it was 1.4 µM (≈ 4 µg/mL); in assay [18] it was 0.699 µM (≈ 2 µg/mL). For the same compound, the MIC in [19] is 1.4 µM (≈ 4 µg/mL); in assay [20] it was 1.05 µM (≈ 3 µg/mL); in assay [21], 1.05 µM (≈ 3 µg/mL); in [22], 22.4 µM (≈ 64 µg/mL); in assay [23], 22.4 µM (≈ 64 µg/mL); in [24] it was 22.4 µM (≈ 64 µg/mL). For the same compound, the MIC came to 11.2 µM (≈ 32 µg/mL) in assay [25], 22.4 µM (≈ 64 µg/mL) in assay [26], 0.699 µM (≈ 2 µg/mL) in [27] and 5.59 µM (≈ 16 µg/mL) in assay [28].

Compound `CC[C@H](C)[C@H](NC(=O)[C@H](CC(C)C)NC(=O)CNC(=O)[C@H](CCCCN)NC(=O)[C@@H](NC(=O)[C@@H](NC(=O)[C@H](CCC(=O)O)NC(=O)[C@@H](NC(=O)[C@@H](NC(=O)[C@H](CCCCN)NC(=O)[C@H](C)NC(=O)[C@@H](NC(=O)[C@@H](NC(=O)CNC(=O)[C@H](C)NC(=O)[C@@H](N)CCSC)C(C)C)[C@@H](C)CC)[C@@H](C)CC)C(C)C)[C@@H](C)CC)C(C)C)C(=O)N[C@@H](CC(=O)O)C(=O)N[C@@H](CCC(N)=O)C(=O)N[C@@H](Cc1ccccc1)C(=O)N[C@H](C(=O)N[C@@H](CCC(N)=O)C(=O)N[C@@H](CCCCN)C(=O)O)[C@@H](C)O` [MAGVIAKIVEIVKGLIDQFTQK] yielded an MIC in [29] of 1.3 µM (≈ 3.12 µg/mL).

Turning to `CC(C)C[C@H](NC(=O)CNC(=O)[C@H](Cc1c[nH]c2ccccc12)NC(=O)CNC(=O)[C@H](CC(C)C)NC(=O)[C@H](CCCCN)NC(=O)[C@@H](N)CCCCN)C(=O)N[C@@H](CCCCN)C(=O)N[C@@H](CCCCN)C(N)=O` [KKLGWGLKK], the MIC was > 128 µM in assay [30]; ≥ 128 µM in assay [31]; ≥ 128 µM in assay [32]; ≥ 128 µM in assay [33]; ≥ 128 µM in [34]; ≥ 128 µM in assay [35]. Moreover, the MIC in assay [36] is ≥ 128 µM; in [14], > 128 µM; in assay [37] it was > 128 µM; in assay [38] it was ≥ 128 µM; in [39] it was ≥ 128 µM; in [40], > 128 µM. For the same compound, the MIC in assay [41] is > 128 µM; in assay [42], > 128 µM; in [43] it was > 128 µM; in assay [44], ≥ 128 µM.

Regarding `CC[C@H](C)[C@H](NC(=O)CNC(=O)[C@H](CCCCN)NC(=O)[C@H](Cc1c[nH]c2ccccc12)NC(=O)[C@H](CC(N)=O)NC(=O)[C@H](C)N)C(=O)N[C@@H](C)C(=O)N[C@@H](C)C(=O)N[C@@H](CCSC)C(=O)N[C@@H](C)C(=O)N[C@@H](CCCCN)C(=O)N[C@@H](CCCCN)C(=O)N[C@@H](CC(C)C)C(=O)N[C@@H](CC(C)C)C(N)=O` [ANWKGIAAMAKKLL], the MIC is ≥ 33 µM in assay [45] and 18 µM (≈ 27.3 µg/mL) in assay [46].

By MIC is commonly meant the lowest concentration found to suppress growth.
